Key:
[1] = Oxidation of selenide solutions in water or glutathione, observed visually; assay type: physicochemical; settings: 50 mM selenide in 150 mM GSH vs in water; 8 minutes immediately following preparation
[2] = tested on: mouse model of heart attack (heart function); test: Echocardiography 2 days post the heart attack procedure; assay type: in vivo, mice; settings: 800 μg/kg; 48 hours of reperfusion after 60 min LAD ligation; vs saline
Method: (§1) For the myocardial infarction model, open chest ligation of the left descending coronary artery (LAD ligation) was performed in mice. At 55 minutes post initiation of ischemia, either vehicle or test agent was injected into the femoral vein of each mouse. The heart muscle was reperfused by releasing the ligature at 60 minutes post initiation of ischemia. Mice were then sacrificed at either 2 hours or 2 days post reperfusion for infarct size measurement and blood analysis or heart function assays, respectively, as described below.
To further test the hypothesis that NaHSe improves outcome following myocardial infarction, mice were survived for 2 days post the heart attack procedure and then subjected to echocardiography.

[3] = tested on: glutathione peroxidase 2 (GPX-2); test: Antibody staining of heart sections for glutathione peroxidase 2; assay type: in vivo, mice; settings: 800 μg/kg; compared to saline and sham (no heart attack) animals
Method: as §1
Therefore, the hypothesis that the therapeutic value of sodium selenide is its accumulation in cardiomycytes during reperfusion for the synthesis of selenoproteins, such as glutathione peroxidase, was tested. Heart sections from animals that were saline treated or NaHSe (800 μg/kg) treated were stained with an antibody specific for the selenoprotein glutathione peroxidase 2 (GPX-2).

cardiac troponin I = test: Plasma cardiac troponin I by ELISA after LAD ligation and 2 hour reperfusion; assay type: in vivo, mice; settings: end of 2 hour reperfusion
Method: as §1
To provide an independent means of testing for improvement, the level of a heart specific protein, cardiac troponin I, was assessed in the blood of the animals after the 2 hour reperfusion period. Five minutes prior to reperfusion, three groups of mice were given 200 μg/kg NaHSe, 50 μg/kg NaHSe, or saline by I.V. injection through the femoral vein. At the end of the 2 hour reperfusion, blood was collected and plasma cardiac troponin I was measured by ELISA.

[4] = tested on: mouse model of heart attack (myocardial ischemia and reperfusion); test: Infarct size by morphometry (TTC and Evans blue) after LAD ligation and 2 hours of reperfusion; assay type: in vivo, mice
Method: as §1
In order to examine the effect of NaHSe on myocardial infarct size, mice were subjected to LAD ligation, and after 2 hours of reperfusion, infarct size was measured by morphometry (FIG. 1). Six groups of mice were utilized in this study, including a saline vehicle group and five test groups that received 50, 200, 800, 1600 and 2400 μg/kg of NaHSe. To be certain that all animals in the study were treated in a similar way, the area at risk (AAR) as a proportion of the left ventricle was determined (FIG. 1, left panel).
Area at risk and infarct size (Inf) were measured using the specific dyes TTC and Evans blue. Processed images were generated in an unbiased way by setting constant thresholds and allowing Photoshop® to generate the images that were quantitated to generate FIG. 1.

[5] = tested on: neutrophils in the myocardium; test: Neutrophil count in heart sections following the heart attack procedure; assay type: in vivo, mice; settings: vs saline treated animals
Method: as §1
In order to determine whether NaHSe decreased inflammation in the hearts of animals following the heart attack procedure, neutrophils were counted in sections of hearts of saline and NaHSe treated animals.

## [SeH2] [NaHSe]
[1]
  oxidation of selenide (dark oxidized forms in solution): reduced levels of oxidation
[2]
  fractional shortening: statistically significant improvement
  left ventricular ejection fraction: statistically significant improvement
[3]
  GPX-2 antibody staining of heart sections: striking increase
Cardiac troponin I; 50 μg/kg I.V. 5 min prior to reperfusion
  plasma cardiac troponin I compared to saline control: statistically significant decrease
Cardiac troponin I; 200 μg/kg I.V. 5 min prior to reperfusion
  plasma cardiac troponin I compared to saline control: statistically significant decrease
[4]; 800 μg/kg (0.8 mg/kg) at reperfusion, selenide vs selenite comparison (FIG. 6)
  benefit relative to infarct size vs saline: provided benefit
[4]; 800 μg/kg I.V. femoral vein 5 min prior to reperfusion, 60 min LAD ligation, 2 hours reperfusion
  reduction in infarct size in comparison to vehicle alone: 88%
[4]; 50, 200, 800, 1600 and 2400 μg/kg I.V. 5 min prior to reperfusion, 2 hours reperfusion
  infarct size vs saline group: statistically significant dose dependent decreases
[5]
  accumulation of neutrophils in the myocardium: significantly reduced
